Here are results for three compounds from US12275731B2, “Azaindole inhibitors of wild-type and mutant forms of LRRK2” (DANA-FARBER CANCER INSTITUTE, INC., priority 2018, dated 2025).

Holding throughout (assay): KinomeScan profiling
Common to all, as to format: binding

Assay [1] concerns the target T1, MEK5 (Homo sapiens, UniProt Q13163).
T1 sequence (Q13163 1-448): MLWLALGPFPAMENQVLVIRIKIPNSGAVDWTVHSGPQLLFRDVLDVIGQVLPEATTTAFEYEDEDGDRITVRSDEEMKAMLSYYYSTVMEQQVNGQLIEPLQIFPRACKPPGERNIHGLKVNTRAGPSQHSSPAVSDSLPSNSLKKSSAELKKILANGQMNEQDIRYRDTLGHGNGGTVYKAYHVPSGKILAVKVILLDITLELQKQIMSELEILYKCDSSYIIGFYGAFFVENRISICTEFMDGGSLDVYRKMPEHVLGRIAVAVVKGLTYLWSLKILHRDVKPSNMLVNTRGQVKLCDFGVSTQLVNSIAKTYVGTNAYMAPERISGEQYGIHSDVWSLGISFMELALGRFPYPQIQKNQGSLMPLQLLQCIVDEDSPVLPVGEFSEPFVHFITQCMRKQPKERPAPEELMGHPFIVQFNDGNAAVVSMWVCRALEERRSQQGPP
The conditions noted are these: MEK5, 1 μM; read-out: % control. The method in brief: (§1)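 Selectivity was assessed by binding competition at 1 μM against 468 kinases. Values below 35% of control define an interaction.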

The target in assay [2] is T2, SRPK1 (Homo sapiens, UniProt Q96SB4).
T2 construct: purchased KinomeScan® (panel service)
The conditions noted are these: SRPK1, 1 μM; read-out: % control. The method, boiled down: as §1

The target of assay [3] is T3, PIK3CD (Homo sapiens, UniProt O00329).
T3 construct: purchased KinomeScan® (panel service)
T3 sequence (O00329 1-1044): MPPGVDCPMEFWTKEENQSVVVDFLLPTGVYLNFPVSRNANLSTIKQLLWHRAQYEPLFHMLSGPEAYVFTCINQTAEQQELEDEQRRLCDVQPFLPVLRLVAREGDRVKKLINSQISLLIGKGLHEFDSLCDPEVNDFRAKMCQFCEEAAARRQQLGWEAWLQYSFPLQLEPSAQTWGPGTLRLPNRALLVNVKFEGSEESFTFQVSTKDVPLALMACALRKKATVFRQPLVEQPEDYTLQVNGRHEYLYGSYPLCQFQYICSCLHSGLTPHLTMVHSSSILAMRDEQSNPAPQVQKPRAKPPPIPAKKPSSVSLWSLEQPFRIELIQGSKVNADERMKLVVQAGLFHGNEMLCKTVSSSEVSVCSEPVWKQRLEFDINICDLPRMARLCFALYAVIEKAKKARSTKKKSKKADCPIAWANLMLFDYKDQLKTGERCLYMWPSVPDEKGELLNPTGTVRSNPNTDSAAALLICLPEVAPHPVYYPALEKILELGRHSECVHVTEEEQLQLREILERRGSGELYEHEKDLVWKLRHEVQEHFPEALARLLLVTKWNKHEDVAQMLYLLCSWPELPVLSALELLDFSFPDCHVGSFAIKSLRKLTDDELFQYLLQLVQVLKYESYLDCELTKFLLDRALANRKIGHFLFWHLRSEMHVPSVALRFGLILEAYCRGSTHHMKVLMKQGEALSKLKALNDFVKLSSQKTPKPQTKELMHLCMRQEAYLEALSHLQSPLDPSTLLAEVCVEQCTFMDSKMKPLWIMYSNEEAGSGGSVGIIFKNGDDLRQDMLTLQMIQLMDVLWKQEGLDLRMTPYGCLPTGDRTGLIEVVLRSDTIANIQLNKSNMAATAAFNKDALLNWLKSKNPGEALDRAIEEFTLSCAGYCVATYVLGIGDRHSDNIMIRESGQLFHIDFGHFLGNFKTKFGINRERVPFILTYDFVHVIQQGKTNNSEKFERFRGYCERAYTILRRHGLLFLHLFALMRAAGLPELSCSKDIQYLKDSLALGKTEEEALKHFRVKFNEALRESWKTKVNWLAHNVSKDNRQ
The conditions noted are these: read-out: % control. The method in brief: as §1

In assay [4] the target is RET (Homo sapiens, UniProt P07949). The conditions noted are these: read-out: % control. The method, boiled down: as §1
For assay [5], the target named is T4, LZK (Homo sapiens, UniProt O43283).
T4 sequence (O43283 1-966): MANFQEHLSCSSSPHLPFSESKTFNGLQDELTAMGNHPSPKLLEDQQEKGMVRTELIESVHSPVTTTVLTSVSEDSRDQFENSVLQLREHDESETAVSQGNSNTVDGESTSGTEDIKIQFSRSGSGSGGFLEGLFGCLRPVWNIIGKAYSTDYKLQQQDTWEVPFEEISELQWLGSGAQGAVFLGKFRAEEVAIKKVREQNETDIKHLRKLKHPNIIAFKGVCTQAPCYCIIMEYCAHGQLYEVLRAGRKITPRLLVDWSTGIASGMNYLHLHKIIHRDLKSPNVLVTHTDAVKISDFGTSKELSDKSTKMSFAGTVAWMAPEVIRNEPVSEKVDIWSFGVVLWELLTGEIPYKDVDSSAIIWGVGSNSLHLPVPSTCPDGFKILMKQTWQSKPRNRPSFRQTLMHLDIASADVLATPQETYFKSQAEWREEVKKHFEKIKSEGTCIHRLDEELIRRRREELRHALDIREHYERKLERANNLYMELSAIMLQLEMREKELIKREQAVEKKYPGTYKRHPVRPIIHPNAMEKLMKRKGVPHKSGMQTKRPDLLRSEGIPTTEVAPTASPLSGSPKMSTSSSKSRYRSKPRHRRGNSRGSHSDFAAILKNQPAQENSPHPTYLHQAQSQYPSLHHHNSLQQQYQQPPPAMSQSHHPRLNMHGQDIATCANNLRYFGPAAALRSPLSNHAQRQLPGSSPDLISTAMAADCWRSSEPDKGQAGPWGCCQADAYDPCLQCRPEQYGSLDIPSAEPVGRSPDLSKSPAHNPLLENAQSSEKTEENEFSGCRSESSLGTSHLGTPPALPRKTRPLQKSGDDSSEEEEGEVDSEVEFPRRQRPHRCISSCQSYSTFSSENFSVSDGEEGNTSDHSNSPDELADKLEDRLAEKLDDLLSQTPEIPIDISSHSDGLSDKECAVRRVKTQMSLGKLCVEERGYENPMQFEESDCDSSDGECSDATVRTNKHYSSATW
The note with it: read-out: % control. The method in brief:
as §1

T2 sequence (Q96SB4 whole entry): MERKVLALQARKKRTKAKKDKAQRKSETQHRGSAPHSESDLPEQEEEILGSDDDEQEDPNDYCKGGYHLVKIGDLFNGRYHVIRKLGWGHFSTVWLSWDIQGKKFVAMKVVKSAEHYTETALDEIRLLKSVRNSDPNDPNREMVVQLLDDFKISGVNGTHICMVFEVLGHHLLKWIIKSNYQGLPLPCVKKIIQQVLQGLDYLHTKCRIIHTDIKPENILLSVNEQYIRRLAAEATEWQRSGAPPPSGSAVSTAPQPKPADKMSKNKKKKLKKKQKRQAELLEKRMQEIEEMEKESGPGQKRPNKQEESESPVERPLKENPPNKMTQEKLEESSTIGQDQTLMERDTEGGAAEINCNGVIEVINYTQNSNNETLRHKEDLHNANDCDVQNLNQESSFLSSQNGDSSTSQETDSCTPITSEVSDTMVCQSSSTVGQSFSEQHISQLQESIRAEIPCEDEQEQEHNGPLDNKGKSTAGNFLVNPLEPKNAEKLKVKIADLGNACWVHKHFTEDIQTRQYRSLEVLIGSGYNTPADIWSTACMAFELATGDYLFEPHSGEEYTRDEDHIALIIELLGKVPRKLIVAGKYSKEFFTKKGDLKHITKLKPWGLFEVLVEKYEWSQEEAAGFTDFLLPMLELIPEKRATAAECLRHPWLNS
Sequence of RET (P07949 29-1114): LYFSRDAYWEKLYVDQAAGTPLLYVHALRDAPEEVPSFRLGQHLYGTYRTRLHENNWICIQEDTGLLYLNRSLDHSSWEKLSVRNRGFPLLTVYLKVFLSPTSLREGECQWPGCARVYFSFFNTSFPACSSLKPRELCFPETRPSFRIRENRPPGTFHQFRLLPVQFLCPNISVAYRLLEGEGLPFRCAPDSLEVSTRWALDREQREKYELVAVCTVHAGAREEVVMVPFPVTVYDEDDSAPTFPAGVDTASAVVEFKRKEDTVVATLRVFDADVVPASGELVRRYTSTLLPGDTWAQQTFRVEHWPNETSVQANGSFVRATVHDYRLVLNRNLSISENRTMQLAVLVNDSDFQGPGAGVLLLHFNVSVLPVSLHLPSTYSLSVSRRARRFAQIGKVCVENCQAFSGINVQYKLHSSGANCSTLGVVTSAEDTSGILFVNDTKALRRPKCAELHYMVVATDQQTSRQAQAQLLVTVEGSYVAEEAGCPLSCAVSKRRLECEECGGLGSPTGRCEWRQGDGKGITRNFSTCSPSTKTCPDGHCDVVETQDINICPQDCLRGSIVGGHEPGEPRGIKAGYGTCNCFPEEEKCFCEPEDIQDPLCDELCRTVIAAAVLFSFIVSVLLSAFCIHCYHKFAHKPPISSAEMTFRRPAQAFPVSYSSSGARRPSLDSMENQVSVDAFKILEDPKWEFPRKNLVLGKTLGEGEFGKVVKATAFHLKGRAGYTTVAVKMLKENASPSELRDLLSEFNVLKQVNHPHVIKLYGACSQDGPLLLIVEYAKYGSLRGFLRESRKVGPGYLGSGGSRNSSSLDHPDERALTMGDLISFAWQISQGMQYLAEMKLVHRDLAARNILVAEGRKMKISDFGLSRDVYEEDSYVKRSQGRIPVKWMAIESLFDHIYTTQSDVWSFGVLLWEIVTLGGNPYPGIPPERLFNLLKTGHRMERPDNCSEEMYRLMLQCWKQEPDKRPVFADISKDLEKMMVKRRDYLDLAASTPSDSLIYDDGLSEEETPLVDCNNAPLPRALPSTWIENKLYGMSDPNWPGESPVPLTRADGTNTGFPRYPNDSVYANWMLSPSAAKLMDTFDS

For the compound `CNc1c(-c2ccc(C(=O)N3CCC(N4CCOCC4)CC3)cc2)cnc2[nH]cc(Cl)c12` [Compound 96, (4-(3-chloro-4-(methylamino)-1H-pyrrolo[2,3-b]pyridin-5-yl)phenyl)(4-morpholinopiperidin-1-yl)methanone], the remaining binding at 1 µM in assay [1] amounted to 7.3%; in assay [2], 17%; in assay [3] it was 84%; in assay [4], 80%; in assay [5], 89%.
For `O=C(c1ccc(-c2cnc3[nH]cc(Cl)c3c2NC2CCCC2)cc1)N1CCC(N2CCOCC2)CC1` [Compound 101, (4-(3-chloro-4-(cyclopentylamino)-1H-pyrrolo[2,3-b]pyridin-5-yl)phenyl)(4-morpholinopiperidin-1-yl)methanone] the same measures were 100%, 27%, 100%, 85% and 76%.
For `CNc1c(-c2cnn([C@H]3CCN(C(C)=O)C[C@@H]3F)c2)cnc2[nH]cc(Cl)c12` [Compound 77, 1-((3S,4S)-4-(4-(3-chloro-4-(methylamino)-1H-pyrrolo[2,3-b]pyridin-5-yl)-1H-pyrazol-1-yl)-3-fluoropiperidin-1-yl)ethan-1-one] the same measures were 3.2%, 10%, 85%, 27% and 61%.
